Values after ≈ are worked out from the molar mass of the structure shown. Bridge positions count the residues as written; N and C are the ends. Peptide text beside a SMILES is read from it.
Assays:
Trypsin [1] = target: T1, Trypsin (Homo sapiens, UniProt P07477+P07478+P35030); test: Stability of compound assessed as trypsin (unknown origin) mediated compound degradation measured at 4.5 hrs by LCMS analysis; type: ADME, protein assay; settings: read-out: Drug degradation
[2] = Selectivity index, ratio of HC50 for hemolytic activity in sheep RBC assessed as 50% hemolysis incubated for 30 mins by microplate reader method to MIC for antibacterial activity against Staphylococcus aureus ATCC 29213 assessed as reduction in bacterial growth measured for 18 to 20 hrs by microbroth dilution method; type: toxicity; settings: sheep red blood cells (erythrocytes), read-out: Selectivity Index
[3] = Selectivity index, ratio of HC50 for hemolytic activity in sheep RBC assessed as 50% hemolysis incubated for 30 mins by microplate reader method to MIC for antibacterial activity against Pseudomonas aeruginosa ATCC 27853 assessed as reduction in bacterial growth measured for 18 to 20 hrs by microbroth dilution method; type: toxicity; settings: sheep red blood cells (erythrocytes), read-out: Selectivity Index
[4] = Selectivity index, ratio of HC50 for hemolytic activity in sheep RBC assessed as 50% hemolysis incubated for 30 mins by microplate reader method to MIC for antibacterial activity against Escherichia coli ATCC 25922 assessed as reduction in bacterial growth measured for 18 to 20 hrs by microbroth dilution method; type: toxicity; settings: sheep red blood cells (erythrocytes), read-out: Selectivity Index
[5] = Hemolytic activity in sheep RBC assessed as hemolysis incubated for 30 mins by microplate reader method; type: toxicity, cell-based, Ovis aries, Erythrocyte; settings: sheep red blood cells (erythrocytes), read-out: Activity
[6] = Selectivity index, ratio of HC50 for hemolytic activity in sheep RBC assessed as 50% hemolysis incubated for 30 mins by microplate reader method to MIC for antibacterial activity against Bacillus subtilis ATCC 6051 assessed as reduction in bacterial growth measured for 18 to 20 hrs by microbroth dilution method; type: toxicity; settings: sheep red blood cells (erythrocytes), read-out: Selectivity Index
[7] = Hemolytic activity in sheep RBC assessed as 50% hemolysis incubated for 30 mins by microplate reader method; type: toxicity, cell-based, Ovis aries, Erythrocyte; settings: sheep red blood cells (erythrocytes)
Trypsin [8] = target: T1, Trypsin; test: Stability of compound assessed as trypsin (unknown origin) mediated compound degradation by measuring H-O1WO3LFO6O7-OH level measured at 15 mins by LCMS analysis; type: protein assay
Trypsin [9] = target: T1, Trypsin; test: Stability of compound assessed as trypsin (unknown origin) mediated compound degradation by measuring H-O1WO3LFO6O7IGAVLO13VL-NH2 level measured at 270 mins by LCMS analysis; type: protein assay
Trypsin [10] = target: T1, Trypsin; test: Stability of compound assessed as trypsin (unknown origin) mediated compound degradation by measuring H-O1WO3LFO6O7IGAVLO13VL-NH2 level measured at 120 mins by LCMS analysis; type: protein assay
Trypsin [11] = target: T1, Trypsin; test: Stability of compound assessed as trypsin (unknown origin) mediated compound degradation by measuring H-WO3LFO6-OH level measured at 15 mins by LCMS analysis; type: protein assay
Trypsin [12] = target: T1, Trypsin; test: Stability of compound assessed as trypsin (unknown origin) mediated compound degradation by measuring H-WO3LFO6-OH level measured at 120 mins by LCMS analysis; type: protein assay
Trypsin [13] = target: T1, Trypsin; test: Stability of compound assessed as trypsin (unknown origin) mediated compound degradation by measuring H-O1WO3LFO6O7-OH level measured at 60 mins by LCMS analysis; type: protein assay
Trypsin [14] = target: T1, Trypsin; test: Stability of compound assessed as trypsin (unknown origin) mediated compound degradation by measuring H-WO3LFO6-OH level measured at 60 mins by LCMS analysis; type: protein assay
Trypsin [15] = target: T1, Trypsin; test: Stability of compound assessed as trypsin (unknown origin) mediated compound degradation by measuring H-O1WO3LFO6O7IGAVLO13-OH level measured at 270 mins by LCMS analysis; type: protein assay
Trypsin [16] = target: T1, Trypsin; test: Stability of compound assessed as trypsin (unknown origin) mediated compound degradation by measuring H-O1WO3LFO6-OH level measured at 270 mins by LCMS analysis; type: protein assay
Trypsin [17] = target: T1, Trypsin; test: Stability of compound assessed as trypsin (unknown origin) mediated compound degradation by measuring H-O1WO3LFO6O7-OH level measured at 120 mins by LCMS analysis; type: protein assay
Trypsin [18] = target: T1, Trypsin; test: Stability of compound assessed as trypsin (unknown origin) mediated compound degradation by measuring H-O7IGAVLO13VL-NH2 level measured at 120 mins by LCMS analysis; type: protein assay
Trypsin [19] = target: T1, Trypsin; test: Stability of compound assessed as trypsin (unknown origin) mediated compound degradation by measuring H-O1WO3LFO6-OH level measured at 15 mins by LCMS analysis; type: protein assay
Trypsin [20] = target: T1, Trypsin; test: Stability of compound assessed as trypsin (unknown origin) mediated compound degradation by measuring H-O1WO3LFO6O7IGAVLO13VL-NH2 level measured at 15 mins by LCMS analysis; type: protein assay
Trypsin [21] = target: T1, Trypsin; test: Stability of compound assessed as trypsin (unknown origin) mediated compound degradation by measuring H-O1WO3LFO6O7IGAVLO13VL-NH2 level measured at 60 mins by LCMS analysis; type: protein assay
Trypsin [22] = target: T1, Trypsin; test: Stability of compound assessed as trypsin (unknown origin) mediated compound degradation by measuring H-O7IGAVLO13VL-NH2 level measured at 60 mins by LCMS analysis; type: protein assay
Trypsin [23] = target: T1, Trypsin; test: Stability of compound assessed as trypsin (unknown origin) mediated compound degradation by measuring H-WO3LFO6-OH level measured at 270 mins by LCMS analysis; type: protein assay
Trypsin [24] = target: T1, Trypsin; test: Stability of compound assessed as trypsin (unknown origin) mediated compound degradation by measuring H-O7IGAVLO13VL-NH2 level measured at 270 mins by LCMS analysis; type: protein assay
Trypsin [25] = target: T1, Trypsin; test: Stability of compound assessed as trypsin (unknown origin) mediated compound degradation by measuring H-O1WO3LFO6O7-OH level measured at 270 mins by LCMS analysis; type: protein assay
Trypsin [26] = target: T1, Trypsin; test: Stability of compound assessed as trypsin (unknown origin) mediated compound degradation by measuring H-O1WO3LFO6O7IGAVLO13-OH level measured at 60 mins by LCMS analysis; type: protein assay
Trypsin [27] = target: T1, Trypsin; test: Stability of compound assessed as trypsin (unknown origin) mediated compound degradation by measuring H-O1WO3LFO6-OH level measured at 60 mins by LCMS analysis; type: protein assay
Trypsin [28] = target: T1, Trypsin; test: Stability of compound assessed as trypsin (unknown origin) mediated compound degradation by measuring H-O1WO3LFO6O7IGAVLO13-OH level measured at 120 mins by LCMS analysis; type: protein assay
Trypsin [29] = target: T1, Trypsin; test: Stability of compound assessed as trypsin (unknown origin) mediated compound degradation by measuring H-O1WO3LFO6-OH level measured at 120 mins by LCMS analysis; type: protein assay
Bacillus subtilis = test: Antibacterial activity against Bacillus subtilis ATCC 6051 assessed as reduction in bacterial growth measured for 18 to 20 hrs by microbroth dilution method; type: functional; settings: time 18-20 hrs
Pseudomonas aeruginosa = test: Antibacterial activity against Pseudomonas aeruginosa ATCC 27853 assessed as reduction in bacterial growth measured for 18 to 20 hrs by microbroth dilution method; type: functional; settings: time 18-20 hrs
Escherichia coli = test: Antibacterial activity against Escherichia coli ATCC 25922 assessed as reduction in bacterial growth measured for 18 to 20 hrs by microbroth dilution method; type: functional; settings: time 18-20 hrs
Staphylococcus aureus = test: Antibacterial activity against Staphylococcus aureus ATCC 29213 assessed as reduction in bacterial growth measured for 18 to 20 hrs by microbroth dilution method; type: functional; settings: time 18-20 hrs
Trypsin [30] = target: T1, Trypsin; test: Stability of compound assessed as trypsin (unknown origin)-mediated compound degradation measured at 5 mins by LCMS analysis; type: ADME, protein assay
Trypsin [31] = target: T1, Trypsin; test: Stability of compound assessed as trypsin (unknown origin)-mediated compound degradation measured at 3 mins by LCMS analysis; type: ADME, protein assay; settings: 0.05 h
Erythrocyte = test: Hemolytic activity in sheep RBC assessed as hemolysis at 1000 ug/ml incubated for 30 mins by microplate reader method; type: toxicity, cell-based, Ovis aries; settings: 0.5 h, dose 1000 µg/ml

CC[C@H](C)[C@H](NC(=O)[C@H](CCCN)NC(=O)[C@H](CCCN)NC(=O)[C@H](Cc1ccccc1)NC(=O)[C@H](CC(C)C)NC(=O)[C@H](CCCN)NC(=O)[C@H](Cc1c[nH]c2ccccc12)NC(=O)[C@@H](N)CCCN)C(=O)NCC(=O)N[C@@H](C)C(=O)N[C@H](C(=O)N[C@@H](CC(C)C)C(=O)N[C@@H](CCCN)C(=O)N[C@H](C(=O)N[C@@H](CC(C)C)C(N)=O)C(C)C)C(C)C
metabolised at 4.5 h (Trypsin [1]): 58%
selectivity ratio at 30 min [2]: > 125
selectivity ratio at 30 min [3]: > 125
selectivity ratio at 30 min [4]: > 250
hemolysis at 0.5 h [5]: 10%
selectivity ratio at 30 min [6]: > 31
HC50 at 0.5 h [7]: > 1000 µg/mL

CC[C@H](C)[C@H](NC(=O)[C@H](CCCN)NC(=O)[C@H](CCCN)NC(=O)[C@H](Cc1ccccc1)NC(=O)[C@H](CC(C)C)NC(=O)[C@H](CCCN)NC(=O)[C@H](Cc1c[nH]c2ccccc12)NC(=O)[C@@H](N)CCCN)C(=O)NCC(=O)N[C@H](C)C(=O)N[C@H](C(=O)N[C@@H](CC(C)C)C(=O)N[C@@H](CCCN)C(=O)N[C@H](C(=O)N[C@@H](CC(C)C)C(N)=O)C(C)C)C(C)C
Drug degradation (Trypsin [8]): 0.4%
Drug degradation (Trypsin [9]): 58.3%
Drug degradation (Trypsin [10]): 79.4%
Drug degradation (Trypsin [11]): 0.6%
Drug degradation (Trypsin [12]): 5.6%
Drug degradation (Trypsin [13]): 2.1%
Drug degradation (Trypsin [14]): 2.8%
Drug degradation (Trypsin [15]): 2.2%
Drug degradation (Trypsin [16]): 17.3%
Drug degradation (Trypsin [17]): 4%
Drug degradation (Trypsin [18]): 1.6%
Drug degradation (Trypsin [19]): 0.9%
Drug degradation (Trypsin [20]): 98.1%
Drug degradation (Trypsin [21]): 89.4%
Drug degradation (Trypsin [22]): 0.9%
Drug degradation (Trypsin [23]): 12.1%
Drug degradation (Trypsin [24]): 2.5%
Drug degradation (Trypsin [25]): 7.6%
Drug degradation (Trypsin [26]): 0.5%
Drug degradation (Trypsin [27]): 4.3%
Drug degradation (Trypsin [28]): 1%
Drug degradation (Trypsin [29]): 8.4%

CC[C@H](C)[C@@H]1NC(=O)[C@H](CCCCN)NC(=O)[C@H](CCCCN)NC(=O)[C@H](Cc2ccccc2)NC(=O)[C@H](CC(C)C)NC(=O)[C@H](CCCCN)NC(=O)[C@H](Cc2c[nH]c3ccccc23)NC(=O)[C@H](CCCCN)NC(=O)[C@@H](N)CSSC[C@@H](C(N)=O)NC(=O)[C@H](CC(C)C)NC(=O)[C@H](C(C)C)NC(=O)[C@H](CCCCN)NC(=O)[C@H](CC(C)C)NC(=O)[C@H](C(C)C)NC(=O)[C@H](C)NC(=O)CNC1=O (H-CKWKLFKKIGAVLKVLC-NH2; disulfide 1-17)
MIC (Bacillus subtilis): 8 µg/mL (≈ 4.05 µM)
selectivity ratio at 30 min [2]: > 250
selectivity ratio at 30 min [3]: > 63
MIC (Pseudomonas aeruginosa): 16 µg/mL (≈ 8.1 µM)
MIC (Escherichia coli): 2 µg/mL (≈ 1.01 µM)
selectivity ratio at 30 min [4]: > 500
hemolysis at 0.5 h [5]: 10%
MIC (Staphylococcus aureus): 4 µg/mL (≈ 2.03 µM)
selectivity ratio at 30 min [6]: > 125
HC50 at 0.5 h [7]: > 1000 µg/mL
Stability (Trypsin [30]): Stable

H-KWKLFKKIGAVLKVL-NH2
MIC (Bacillus subtilis): 32 µg/mL
selectivity ratio at 30 min [2]: 173
selectivity ratio at 30 min [3]: 86
MIC (Pseudomonas aeruginosa): 8 µg/mL
Stability (Trypsin [31]): Unstable
MIC (Escherichia coli): 4 µg/mL
selectivity ratio at 30 min [4]: 173
hemolysis at 0.5 h [5]: 10%
MIC (Staphylococcus aureus): 4 µg/mL
selectivity ratio at 30 min [6]: 22
HC50 at 0.5 h [7]: 690 µg/mL

H-RWRLFRRIGAVLRVL-NH2
MIC (Bacillus subtilis): 16 µg/mL
selectivity ratio at 30 min [2]: 29
selectivity ratio at 30 min [3]: 58
MIC (Pseudomonas aeruginosa): 4 µg/mL
MIC (Escherichia coli): 4 µg/mL
selectivity ratio at 30 min [4]: 58
MIC (Staphylococcus aureus): 8 µg/mL
selectivity ratio at 30 min [6]: 14
HC50 at 0.5 h [7]: 230 µg/mL
Activity (Erythrocyte): Toxic

— ChEMBL document CHEMBL5126613, “Novel CA(1-7)M(2-9) Analogs: Synthesis, Characterization, and Antibacterial Evaluation” (ACS Med Chem Lett, 2022)
